Our source for the inhibition values is ChEMBL document CHEMBL4340535, “Antitumor effect of chiral organotelluranes elicited in a murine melanoma model” (Bioorg Med Chem, 2019).

For this assay, the system named is HUVEC. Description: Anti-angiogenic activity in human HUVEC cells assessed as inhibition in pro-angiogenic structures formation in presence of fetal calf serum at 5 uM incubated for 18 hrs by inverted light microscopy based matrigel assay. Format: functional.

On to `CC(C)C[C@H](NC(=O)[C@H]1O[C@@H]1C(=O)O)C(=O)NCCCCN=C(N)N` [E-64], for which the inhibition (commonly the change of the read-out against control, counted positive when it falls) at 5 µM stood at 80%.
